The values below come from US6472418B1, “Non-peptide NK1 receptors antagonists” (Warner-Lambert Company, priority 1998, dated 2002).

The target in one experiment is T1, Human NK1 Receptor (Homo sapiens, UniProt P25103).
T1 construct: endogenous in cells; host or cells: Human lymphoma IM9 cells (whole cells)
T1 sequence (P25103 whole entry): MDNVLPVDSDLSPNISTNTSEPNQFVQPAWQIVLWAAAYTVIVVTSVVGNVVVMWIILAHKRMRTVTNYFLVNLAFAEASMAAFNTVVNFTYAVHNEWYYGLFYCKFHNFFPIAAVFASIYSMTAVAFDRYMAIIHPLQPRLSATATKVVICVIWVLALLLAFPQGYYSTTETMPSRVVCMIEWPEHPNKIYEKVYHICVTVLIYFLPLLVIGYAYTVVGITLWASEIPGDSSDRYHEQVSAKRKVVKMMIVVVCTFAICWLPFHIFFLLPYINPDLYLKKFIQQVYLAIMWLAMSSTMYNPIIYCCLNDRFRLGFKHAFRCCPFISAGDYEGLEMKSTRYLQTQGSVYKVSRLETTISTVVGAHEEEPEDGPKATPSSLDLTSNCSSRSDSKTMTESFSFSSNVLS
The experiment can be described thus: In Vitro Human NK1 Receptor Binding Assay ([125I]Bolton-Hunter substance P displacement, IM9 cells). Particulars: Table 4; [125I]Bolton-Hunter substance P displacement, human IM9 cells; read-out: IC50 (nM) hNK1. Put shortly:
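Test compounds competed with 0.05-0.1 nM [125I]Bolton-Hunter substance P for binding to intact IM9 cells over 50 min at 21° C, pH 7.4 buffer with MnCl2 and peptidase inhibitors. […] [Sar9, Met(O2)11] substance P gave non-specific binding. Bound counts were measured after filtration and fitted iteratively.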
For `CC(NC(=O)C(C)(Cc1c[nH]c2ccccc12)NCc1c2ccccc2cc2ccccc12)c1ccccc1` (stereo not shown) [compound 346, 2-[(Anthracen-9-ylmethyl)-amino]-3-(1H-indol-3-yl)-2-methyl-N-(1-phenyl-ethyl)-propionamide], the IC50 (commonly the concentration needed to halve the response being measured) was greater than 10000 nM.

As to `CC(NC(=O)C(C)(Cc1c[nH]c2ccccc12)NCc1ccc(Oc2ccccc2)cc1)c1ccccc1` (stereo not shown) [compound 347, 3-(1H-Indol-3-yl)-2-methyl-2-(4-phenoxy-benzylamino)-N-(1-phenyl-ethyl)-propionamide], the IC50 was found to be 3380 nM.

In the case of `CC(NC(=O)C(C)(Cc1c[nH]c2ccccc12)NCc1ccc(-c2ccccc2)cc1)c1ccccc1` (stereo not shown) [compound 348, 2-[(Biphenyl-4-ylmethyl)-amino]-3-(1H-indol-3-yl)-2-methyl-N-(1-phenyl-ethyl)-propionamide], the 50% inhibitory concentration (IC50) is 5560 nM.

In the case of `CC(NC(=O)C(C)(Cc1c[nH]c2ccccc12)NCc1ccc2c(c1)OCO2)c1ccccc1` (stereo not shown) [compound 349, 2-[(Benzo[1,3]dioxol-5-ylmethyl)-amino]-3-(1H-indol-3-yl)-2-methyl-N-(1-phenyl-ethyl)-propionamide], the IC50 was determined as 356 nM.

As to `CC(NC(=O)C(C)(Cc1c[nH]c2ccccc12)NCc1ccccc1Sc1ccc(Cl)cc1)c1ccccc1` (stereo not shown) [compound 350, 2-[2-(4-Chloro-phenylsulfanyl)-benzylamino]-3-(1H-indol-3-yl)-2-methyl-N-(1-phenyl-ethyl)-propionamide], the IC50 was greater than 10000 nM.

In the case of `CC(NC(=O)C(C)(Cc1c[nH]c2ccccc12)NCc1ccc(C=Cc2ccccc2)cc1)c1ccccc1` (stereo not shown) [compound 351, 3-(1H-Indol-3-yl)-2-methyl-N-(1-phenyl-ethyl)-2-(4-styryl-benzylamino)-propionamide], the IC50 was greater than 10000 nM.

For the compound `CC=C(C)CCC=C(C)CNC(C)(Cc1c[nH]c2ccccc12)C(=O)NC(C)c1ccccc1` (stereo not shown) [compound 352, 2-(2,6-Dimethyl-octa-2,6-dienylamino)-3-(1H-indol-3-yl)-2-methyl-N-(1-phenyl-ethyl)-propionamide], the IC50 turned out to be 2210 nM.

As for `CC(NC(=O)C(C)(Cc1c[nH]c2ccccc12)NCc1ccc(-c2ccc([N+](=O)[O-])cc2)o1)c1ccccc1` (stereo not shown) [compound 353, 3-(1H-Indol-3-yl)-2-methyl-2-{[5-(4-nitro-phenyl)-furan-2-ylmethyl]-amino}-N-(1-phenyl-ethyl)-propionamide], the IC50 came out at 13 nM.

Turning to `CC(NC(=O)C(C)(Cc1c[nH]c2ccccc12)NCc1ccc2c(c1)Cc1ccccc1-2)c1ccccc1` (stereo not shown) [compound 354, 2-[(9H-Fluoren-2-ylmethyl)-amino]-3-(1H-indol-3-yl)-2-methyl-N-(1-phenyl-ethyl)-propionamide], the IC50 was found to be 1730 nM.

For the compound `CC(NC(=O)C(C)(Cc1c[nH]c2ccccc12)NCc1c[nH]c2ccccc12)c1ccccc1` (stereo not shown) [compound 355, 3-(1H-Indol-3-yl)-2-[(1H-indol-3-ylmethyl)-amino]-2-methyl-N-(1-phenyl-ethyl)-propionamide], the IC50 is 1050 nM.

Turning to `CCCCCC(=Cc1ccccc1)CNC(C)(Cc1c[nH]c2ccccc12)C(=O)NC(C)c1ccccc1` (stereo not shown) [compound 356, 3-(1H-Indol-3-yl)-2-methyl-2-(2-pentyl-3-phenyl-allylamino)-N-(1-phenyl-ethyl)-propionamide], the IC50 is greater than 10000 nM.

Take `CC(NC(=O)C(C)(Cc1c[nH]c2ccccc12)NCc1cccs1)c1ccccc1` (stereo not shown) [compound 357, 3-(1H-Indol-3-yl)-2-methyl-N-(1-phenyl-ethyl)-2-[(thiophen-2-ylmethyl)-amino]-propionamide]: the IC50 came to 548 nM.

As for `CC(NC(=O)C(C)(Cc1c[nH]c2ccccc12)NCc1ccsc1)c1ccccc1` (stereo not shown) [compound 358, 3-(1H-Indol-3-yl)-2-methyl-N-(1-phenyl-ethyl)-2-[(thiophen-3-ylmethyl)-amino]-propionamide], the IC50 was 598 nM.

As for `CC(NC(=O)C(C)(Cc1c[nH]c2ccccc12)NCc1ccncc1)c1ccccc1` (stereo not shown) [compound 359, 3-(1H-Indol-3-yl)-2-methyl-N-(1-phenyl-ethyl)-2-[(pyridin-4-ylmethyl)-amino]-propionamide], the IC50 stood at 3710 nM.

The experiment is the same for the next values; noted with them: Table 5; [125I]Bolton-Hunter substance P displacement, human IM9 cells; read-out: IC50 (nM) hNK1.
Turning to `CC(NC(=O)C(Cc1c[nH]c2ccccc12)NCc1ccccc1OCc1cccnc1)c1ccccc1` (stereo not shown) [compound 361], the IC50 was 729 nM.

Regarding `CC(NC(=O)C(Cc1c[nH]c2ccccc12)NCc1ccc(C=Cc2ccccc2)o1)c1ccccc1` (stereo not shown) [compound 362], the IC50 was greater than 10000 nM.

For `CC(NC(=O)C(Cc1c[nH]c2ccccc12)NCc1ccc(OCCCC(C)(C)C(=O)O)cc1)c1ccccc1` (stereo not shown) [compound 364], the IC50 worked out at 1250 nM.

With `CC(NC(=O)C(Cc1c[nH]c2ccccc12)NCC1CC=C(CCCC(C)(C)O)CC1)c1ccccc1` (stereo not shown) [compound 365], the IC50 is 5280 nM.

As to `CC(C)C=CCC1=CCC(CNC(Cc2c[nH]c3ccccc23)C(=O)NC(C)c2ccccc2)CC1` (stereo not shown) [compound 366], the IC50 is 4050 nM.

With `CCOC(=O)Nc1ccccc1CNC(Cc1c[nH]c2ccccc12)C(=O)NC(C)c1ccccc1` (stereo not shown) [compound 367], the IC50 stood at 236 nM.

Consider `CC(NC(=O)C(Cc1c[nH]c2ccccc12)NCc1ccc(N2CCOCC2)cc1Cl)c1ccccc1` (stereo not shown) [compound 368], for which the IC50 is 2240 nM.

With `CNS(=O)(=O)c1cc(Cl)ccc1CNC(Cc1c[nH]c2ccccc12)C(=O)NC(C)c1ccccc1` (stereo not shown) [compound 369], the IC50 is 450 nM.

Take `CC(NC(=O)C(Cc1c[nH]c2ccccc12)NCC(Cc1ccccc1)c1ccccc1)c1ccccc1` (stereo not shown) [compound 370]: the IC50 was determined as 534 nM.

Take `CC(NC(=O)C(Cc1c[nH]c2ccccc12)NCc1coc2ccccc2c1=O)c1ccccc1` (stereo not shown) [compound 371]: the 50% inhibitory concentration (IC50) was greater than 10000 nM.

In the case of `CC(NC(=O)C(Cc1c[nH]c2ccccc12)NCC1CSc2c([nH]c3ccccc23)C1=O)c1ccccc1` (stereo not shown) [compound 372], the IC50 was greater than 10000 nM.

Regarding `Cc1c(-c2ccccc2)occ(CNC(Cc2c[nH]c3ccccc23)C(=O)NC(C)c2ccccc2)c1=O` (stereo not shown) [compound 373], the IC50 was 507 nM.

`COC(=O)c1ccc(CNC(Cc2c[nH]c3ccccc23)C(=O)NC(C)c2ccccc2)cc1` (stereo not shown) [compound 374]: the IC50 was found to be 1910 nM.

As to `CCCc1nc(-n2cccc2)c(CNC(Cc2c[nH]c3ccccc23)C(=O)NC(C)c2ccccc2)[nH]1` (stereo not shown) [compound 375], the IC50 turned out to be 165 nM.

With `CC(NC(=O)C(Cc1c[nH]c2ccccc12)NCC(=Cc1ccccc1)c1ccccc1)c1ccccc1` (stereo not shown) [compound 376], the 50% inhibitory concentration (IC50) was greater than 10000 nM.

As for `CC(NC(=O)C(Cc1c[nH]c2ccccc12)NCC=Cc1ccc2c(c1)OCO2)c1ccccc1` (stereo not shown) [compound 377], the IC50 is 593 nM.

Regarding `CC(NC(=O)C(Cc1c[nH]c2ccccc12)NCC=Cc1ccc(OCc2ccccc2)cc1)c1ccccc1` (stereo not shown) [compound 378], the IC50 is 932 nM.

Turning to `CC(NC(=O)C(Cc1c[nH]c2ccccc12)NCc1ccc(OCc2ccccc2)cc1)c1ccccc1` (stereo not shown) [compound 379], the IC50 was 587 nM.

As to `CC(NC(=O)C(Cc1c[nH]c2ccccc12)NCCCc1cccc2ccccc12)c1ccccc1` (stereo not shown) [compound 380], the IC50 stood at 500 nM.

As for `Cc1ccc(S(=O)(=O)Oc2cccc(CNC(Cc3c[nH]c4ccccc34)C(=O)NC(C)c3ccccc3)c2)cc1` (stereo not shown) [compound 381], the IC50 is greater than 10000 nM.

On to `CC(NC(=O)C(Cc1c[nH]c2ccccc12)NCc1cccc(OCc2ccccc2)c1)c1ccccc1` (stereo not shown) [compound 382], for which the IC50 was greater than 10000 nM.

With `CSc1ccc(CNC(Cc2c[nH]c3ccccc23)C(=O)NC(C)c2ccccc2)cc1` (stereo not shown) [compound 383], the IC50 amounted to 252 nM.

With `CC(NC(=O)C(Cc1c[nH]c2ccccc12)NCc1ccc(Oc2ccccc2)cc1)c1ccccc1` (stereo not shown) [compound 384], the IC50 turned out to be 2350 nM.

As to `CC(NC(=O)C(Cc1c[nH]c2ccccc12)NCc1ccc(-c2ccccc2)cc1)c1ccccc1` (stereo not shown) [compound 385], the IC50 came out at 1460 nM.

With `CC(NC(=O)C(Cc1c[nH]c2ccccc12)NCc1ccc2c(c1)OCO2)c1ccccc1` (stereo not shown) [compound 386], the IC50 came to 240 nM.

Consider `CC(NC(=O)C(Cc1c[nH]c2ccccc12)NCc1ccccc1Sc1ccc(Cl)cc1)c1ccccc1` (stereo not shown) [compound 387], for which the IC50 worked out at 201 nM.

With `CC=C(C)CCC=C(C)CNC(Cc1c[nH]c2ccccc12)C(=O)NC(C)c1ccccc1` (stereo not shown) [compound 389], the IC50 came out at 2570 nM.

For the compound `CC(NC(=O)C(Cc1c[nH]c2ccccc12)NCc1ccc(-c2ccc([N+](=O)[O-])cc2)o1)c1ccccc1` (stereo not shown) [compound 390], the IC50 is 50 nM.

`CC(NC(=O)C(Cc1c[nH]c2ccccc12)NCc1ccc2c(c1)Cc1ccccc1-2)c1ccccc1` (stereo not shown) [compound 391]: the IC50 was found to be 846 nM.

As for `Cc1cc(CNC(Cc2c[nH]c3ccccc23)C(=O)NC(C)c2ccccc2)c(C)n1-c1ccccc1` (stereo not shown) [compound 392], the concentration for half-maximal inhibition (IC50) is greater than 10000 nM.

Take `CC(NC(=O)C(Cc1c[nH]c2ccccc12)NCc1cccnc1)c1ccccc1` (stereo not shown) [compound 393]: the IC50 is 802 nM.

For `CC(NC(=O)C(Cc1c[nH]c2ccccc12)NCc1ccc2ccccc2c1)c1ccccc1` (stereo not shown) [compound 394], the IC50 was 158 nM.

As to `CC(NC(=O)C(Cc1c[nH]c2ccccc12)NCc1ccccn1)c1ccccc1` (stereo not shown) [compound 395], the IC50 is greater than 10000 nM.

Regarding `CC(NC(=O)C(Cc1c[nH]c2ccccc12)NCc1cccs1)c1ccccc1` (stereo not shown) [compound 396], the IC50 came to 1070 nM.

Consider `COc1ccc(CNC(Cc2c[nH]c3ccccc23)C(=O)NC(C)c2ccccc2)cc1OC` (stereo not shown) [compound 397], for which the IC50 is greater than 10000 nM.

Turning to `CC(NC(=O)C(Cc1c[nH]c2ccccc12)NCc1cc(C(F)(F)F)cc(C(F)(F)F)c1)c1ccccc1` (stereo not shown) [compound 398], the IC50 is greater than 10000 nM.

On to `CC(NC(=O)C(Cc1c[nH]c2ccccc12)NCc1cc(F)cc(F)c1)c1ccccc1` (stereo not shown) [compound 399], for which the IC50 came to 140 nM.

As for `CC(NC(=O)C(Cc1c[nH]c2ccccc12)NCc1cccc(Cl)c1)c1ccccc1` (stereo not shown) [compound 400], the IC50 came to 13 nM.
